# Measurements from the RepoRT retention time repository (doi:10.1007/s00216-013-6954-6).
# Columns and labels:
# [1] = RP, Waters ACQUITY UPLC HSS T3, 100 × 1 mm, 1.8 µm; A: water + 0.1% formic acid, pH 3; B: acetonitrile + 0.1% formic acid, pH 3; gradient (min/%B) 0/5 1/5 16/95 18/95 20/5; details: stereoisomer not certain
# [2] = RP, Waters ACQUITY UPLC HSS T3, 150 × 2.1 mm, 1.8 µm; A: water + 0.1% formic acid; B: acetonitrile + 0.1% formic acid; gradient (min/%B) 0/5 1/5 16/95 18/95; details: stereoisomer not certain
LC retention time [1] [min],LC retention time [2] [min],SMILES
0.8,0.8,Nc1ncnc2c1ncn2C1CC(O)C(CO)O1 (stereo not drawn)
1.1,1.1,COC1C(O)C(CO)OC1n1cnc2c(N)ncnc21 (stereo not drawn)
2.7,–,CC(C)CC(NC(=O)C(N)C(C)C)C(=O)O (stereo not drawn) [H-Val-Leu-OH]
11.6,–,CCCCCCCCCCCCCCCC(=O)OCC(O)COP(=O)([O-])OCC[N+](C)(C)C (stereo not drawn) [lysoPC(16:0/0:0)]
3.1,–,CCC(C)C(N)C(=O)NC(C(=O)O)C(C)CC (stereo not drawn) [H-Ile-Ile-OH]
3.8,–,CCC(C)C(NC(=O)C(N)Cc1ccccc1)C(=O)O (stereo not drawn) [H-Phe-Ile-OH]
0.413,–,NC(N)=NCCCC(N)C(=O)O (stereo not drawn) [Arginine]
3,–,CC(C)C(NC(=O)C(N)Cc1ccccc1)C(=O)O (stereo not drawn) [H-Phe-Val-OH]
4.5,–,COc1cc2ccc(=O)oc2cc1O [Scopoletin]
3.9,–,CCC(C)C(N)C(=O)NC(Cc1ccccc1)C(=O)O (stereo not drawn) [H-Ile-Phe-OH]
3.2,–,CC(C)CC(NC(=O)C(N)Cc1ccc(O)cc1)C(=O)O (stereo not drawn) [H-Tyr-Leu-OH]
3.4,–,CCC(C)C(N)C(=O)NC(CC(C)C)C(=O)O (stereo not drawn) [H-Ile-Leu-OH]
3.1,–,"O=C(O)C1Cc2c([nH]c3ccccc23)CN1 (stereo not drawn) [3-Carboxy-1,2,3,4-tetrahydro-2-carboline]"
3.92,–,Cc1cc2nc3c(=O)[nH]c(=O)nc-3n(CC(O)C(O)C(O)CO)c2cc1C (stereo not drawn) [Riboflavin]
0.643,–,O=c1[nH]c(=O)c2[nH]c(=O)[nH]c2[nH]1 [Uric acid]
7.57,–,CC(CCC(=O)NCCS(=O)(=O)O)C1CCC2C3C(O)CC4CC(O)CCC4(C)C3CC(O)C12C (stereo not drawn) [Taurocholic acid]
3.2,–,COc1cc(C=CCO)cc(OC)c1OC1OC(CO)C(O)C(O)C1O (stereo not drawn) [Syringin]
4.7,–,O=C(O)c1c[nH]c2ccccc12 [Indole-3-carboxylic acid (I3CO2H)]
2.6,–,CC(C)CC(N)C(=O)N1CCCC1C(=O)O (stereo not drawn) [H-Leu-Pro-OH]
0.525,–,Nc1ncnc2nc[nH]c12 [Adenine]

SMILES,LC retention time [1] [min],LC retention time [2] [min]
O=c1ccc2cc(OC3OC(CO)C(O)C(O)C3O)c(O)cc2o1 (stereo not drawn) [Esculin],2.9,–
